Target: Sodium/potassium-transporting ATPase
Assay: Inhibition of hog kidney Na+, K+-dependent ATPase
Assay type: protein-complex assay, Sus scrofa
Conditions: read-out: I50

| Compound | IC50 [nM] |
| --- | --- |
| C[C@H]1O[C@@H](O[C@H]2CC[C@@]3(C)[C@H](CC[C@@H]4[C@@H]3CC[C@]3(C)[C@@H](C5=CC(=O)OC5)CC[C@]43O)C2)C[C@H](O)[C@@H]1O | 7.04 |
| C[C@]12CC[C@H](O[C@@H]3O[C@@H](CO)[C@H](O)[C@@H](O)[C@H]3O)C[C@H]1CC[C@@H]1[C@@H]2CC[C@]2(C)[C@@H](C3=CC(=O)OC3)CC[C@]12O | 87 |
| C[C@]12CC[C@H](O[C@H]3O[C@H](CO)[C@@H](O)[C@H](O)[C@H]3O)C[C@H]1CC[C@@H]1[C@@H]2CC[C@]2(C)[C@@H](C3=CC(=O)OC3)CC[C@]12O (stereo in doubt; 3c) | 129 |
| C[C@]12CC[C@H](O[C@H]3O[C@H](CO)[C@@H](O)[C@H](O)[C@H]3O)C[C@H]1CC[C@@H]1[C@@H]2CC[C@]2(C)[C@@H](C3=CC(=O)OC3)CC[C@]12O (stereo in doubt; 3d) | 38.9 |
| C[C@]12CC[C@H](O[C@H]3O[C@H](CO)[C@@H](O)[C@H](O)[C@H]3O)C[C@H]1CC[C@@H]1[C@@H]2CC[C@]2(C)[C@@H](C3=CC(=O)OC3)CC[C@]12O (stereo in doubt; 4a) | 60.3 |
| C[C@]12CC[C@H](O[C@H]3O[C@H](CO)[C@@H](O)[C@H](O)[C@H]3O)C[C@H]1CC[C@@H]1[C@@H]2CC[C@]2(C)[C@@H](C3=CC(=O)OC3)CC[C@]12O (stereo in doubt; 4b) | 16 |
| C[C@]12CC[C@H](O[C@H]3O[C@H](CO)[C@@H](O)[C@H](O)[C@H]3O)C[C@H]1CC[C@@H]1[C@@H]2CC[C@]2(C)[C@@H](C3=CC(=O)OC3)CC[C@]12O (stereo in doubt; 4c) | 93.3 |
| C[C@]12CC[C@H](O[C@H]3O[C@H](CO)[C@@H](O)[C@H](O)[C@H]3O)C[C@H]1CC[C@@H]1[C@@H]2CC[C@]2(C)[C@@H](C3=CC(=O)OC3)CC[C@]12O (stereo in doubt; 4d) | 10.5 |
| CC12CCC(O[C@H]3O[C@H](CO)[C@H](O)[C@H](O)[C@H]3O)CC1CCC1C2CC[C@]2(C)C(C3=CC(=O)OC3)CCC12O (stereo in doubt; form 1) | 64.5 |
| C[C@@H]1O[C@@H](O[C@H]2CC[C@@]3(C)[C@H](CC[C@@H]4[C@@H]3CC[C@]3(C)[C@@H](C5=CC(=O)OC5)CC[C@]43O)C2)[C@H](O)[C@H](O)[C@H]1O (stereo in doubt; form 1) | 4.79 |
| CC12CCC(O[C@H]3O[C@H](CO)[C@H](O)[C@H](O)[C@H]3O)CC1CCC1C2CC[C@]2(C)C(C3=CC(=O)OC3)CCC12O (stereo in doubt; form 2) | 17.8 |
| C[C@@H]1O[C@@H](O[C@H]2CC[C@@]3(C)[C@H](CC[C@@H]4[C@@H]3CC[C@]3(C)[C@@H](C5=CC(=O)OC5)CC[C@]43O)C2)[C@H](O)[C@H](O)[C@H]1O (stereo in doubt; form 2) | 6.79 |
| C[C@]12CC[C@H](O[C@@H]3O[C@@H](CO)[C@@H](O)[C@H](O)[C@@H]3O)C[C@H]1CC[C@@H]1[C@@H]2CC[C@]2(C)[C@@H](C3=CC(=O)OC3)CC[C@]12O (stereo in doubt; form 2) | 10.7 |
